Data published in PubChem BioAssay (NCI).
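Compound exposure: 48 hours, 5 concentrations, 96-well plates. GI50 is the concentration that inhibits growth by half. The concentration for full growth arrest is given as TGI.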

How the values were obtained:
Test in all cases: NCI-60 cell line screen, 48 h
786-0 renal = system: 786-0 renal
A498 renal = system: A498 renal
A549 NSCLC = system: A549 NSCLC
ACHN renal = system: ACHN renal
BT-549 breast = system: BT-549 breast
CAKI-1 renal = system: CAKI-1 renal
CCRF-CEM leukemia = system: CCRF-CEM leukemia
COLO 205 colon = system: COLO 205 colon
DU-145 prostate = system: DU-145 prostate
EKVX NSCLC = system: EKVX NSCLC
HCC-2998 colon = system: HCC-2998 colon
HCT-116 colon = system: HCT-116 colon
HCT-15 colon = system: HCT-15 colon
HL-60(TB) leukemia = system: HL-60(TB) leukemia
HOP-62 NSCLC = system: HOP-62 NSCLC
HOP-92 NSCLC = system: HOP-92 NSCLC
HS 578T breast = system: HS 578T breast
HT29 colon = system: HT29 colon
IGROV1 ovarian = system: IGROV1 ovarian
K-562 leukemia = system: K-562 leukemia
KM12 colon = system: KM12 colon
LOX IMVI melanoma = system: LOX IMVI melanoma
M14 melanoma = system: M14 melanoma
MALME-3M melanoma = system: MALME-3M melanoma
MCF7 breast = system: MCF7 breast
MDA-MB-231 breast = system: MDA-MB-231 breast
MOLT-4 leukemia = system: MOLT-4 leukemia
NCI-H226 lung = system: NCI-H226 lung
NCI-H23 lung = system: NCI-H23 lung
NCI-H460 lung = system: NCI-H460 lung
NCI-H522 lung = system: NCI-H522 lung
NCI/ADR-RES ovarian = system: NCI/ADR-RES ovarian
OVCAR-4 ovarian = system: OVCAR-4 ovarian
OVCAR-5 ovarian = system: OVCAR-5 ovarian
OVCAR-8 ovarian = system: OVCAR-8 ovarian
PC-3 prostate = system: PC-3 prostate
RPMI-8226 leukemia = system: RPMI-8226 leukemia
RXF 393 renal = system: RXF 393 renal
SF-268 CNS = system: SF-268 CNS
SF-295 CNS = system: SF-295 CNS
SF-539 CNS = system: SF-539 CNS
SK-MEL-2 melanoma = system: SK-MEL-2 melanoma
SK-MEL-28 melanoma = system: SK-MEL-28 melanoma
SK-MEL-5 melanoma = system: SK-MEL-5 melanoma
SK-OV-3 ovarian = system: SK-OV-3 ovarian
SN12C renal = system: SN12C renal
SNB-19 CNS = system: SNB-19 CNS
SNB-75 CNS = system: SNB-75 CNS
SR leukemia = system: SR leukemia
SW-620 colon = system: SW-620 colon
T-47D breast = system: T-47D breast
TK-10 renal = system: TK-10 renal
U251 CNS = system: U251 CNS
UACC-257 melanoma = system: UACC-257 melanoma
UACC-62 melanoma = system: UACC-62 melanoma
UO-31 renal = system: UO-31 renal

Q: Which GI50 (786-0 renal) does the source give for `CCn1c2ccccc2c2cc(-n3nncc3-c3ccccc3)ccc21` here?
A: 0.34 µM

Q: And the TGI (786-0 renal)?
A: > 100 µM

Q: What about the GI50 (A498 renal) of the same compound?
A: 0.0954 µM

Q: What about the TGI (A498 renal) of the same compound?
A: 0.799 µM

Q: What about the GI50 (A549 NSCLC) of the same compound?
A: 0.208 µM

Q: And the TGI (A549 NSCLC)?
A: > 100 µM

Q: What about the GI50 (ACHN renal) of the same compound?
A: 0.301 µM

Q: And the TGI (ACHN renal)?
A: > 100 µM

Q: And the GI50 (BT-549 breast)?
A: 0.147 µM

Q: What about the TGI (BT-549 breast) of the same compound?
A: 2.03 µM

Q: And the GI50 (CAKI-1 renal)?
A: 0.0775 µM

Q: What about the TGI (CAKI-1 renal) of the same compound?
A: > 100 µM

Q: And the GI50 (CCRF-CEM leukemia)?
A: 0.203 µM

Q: What about the TGI (CCRF-CEM leukemia) of the same compound?
A: > 100 µM

Q: And the GI50 (COLO 205 colon)?
A: 0.134 µM

Q: And the TGI (COLO 205 colon)?
A: 0.438 µM

Q: And the GI50 (DU-145 prostate)?
A: 0.375 µM

Q: What about the GI50 (EKVX NSCLC) of the same compound?
A: 0.532 µM

Q: What about the TGI (EKVX NSCLC) of the same compound?
A: > 100 µM

Q: What about the GI50 (HCC-2998 colon) of the same compound?
A: 0.277 µM

Q: What about the TGI (HCC-2998 colon) of the same compound?
A: > 52.4 µM

Q: What about the GI50 (HCT-116 colon) of the same compound?
A: 0.0722 µM

Q: And the GI50 (HCT-15 colon)?
A: 0.067 µM

Q: What about the TGI (HCT-15 colon) of the same compound?
A: > 100 µM

Q: What about the GI50 (HL-60(TB) leukemia) of the same compound?
A: 0.0697 µM

Q: What about the TGI (HL-60(TB) leukemia) of the same compound?
A: > 20.3 µM

Q: What about the GI50 (HOP-62 NSCLC) of the same compound?
A: 0.141 µM

Q: And the TGI (HOP-62 NSCLC)?
A: > 100 µM

Q: And the TGI (HOP-92 NSCLC)?
A: > 77.6 µM

Q: What about the GI50 (HS 578T breast) of the same compound?
A: 0.0615 µM

Q: And the TGI (HS 578T breast)?
A: > 100 µM

Q: And the GI50 (HT29 colon)?
A: 0.117 µM

Q: And the TGI (HT29 colon)?
A: 0.927 µM

Q: What about the GI50 (IGROV1 ovarian) of the same compound?
A: 0.164 µM

Q: What about the TGI (IGROV1 ovarian) of the same compound?
A: > 100 µM

Q: And the GI50 (K-562 leukemia)?
A: 0.0407 µM

Q: And the TGI (K-562 leukemia)?
A: > 100 µM

Q: What about the GI50 (KM12 colon) of the same compound?
A: 0.049 µM

Q: And the GI50 (LOX IMVI melanoma)?
A: 0.129 µM

Q: What about the TGI (LOX IMVI melanoma) of the same compound?
A: > 100 µM

Q: What about the GI50 (M14 melanoma) of the same compound?
A: 0.0829 µM

Q: And the TGI (M14 melanoma)?
A: > 100 µM

Q: What about the GI50 (MALME-3M melanoma) of the same compound?
A: 2.43 µM

Q: And the TGI (MALME-3M melanoma)?
A: > 100 µM

Q: What about the GI50 (MCF7 breast) of the same compound?
A: 0.269 µM

Q: And the TGI (MCF7 breast)?
A: > 100 µM

Q: What about the GI50 (MDA-MB-231 breast) of the same compound?
A: 0.54 µM

Q: And the TGI (MDA-MB-231 breast)?
A: > 100 µM

Q: And the GI50 (MOLT-4 leukemia)?
A: 0.35 µM

Q: What about the TGI (MOLT-4 leukemia) of the same compound?
A: > 100 µM

Q: And the GI50 (NCI-H226 lung)?
A: 0.519 µM

Q: And the TGI (NCI-H226 lung)?
A: > 100 µM

Q: And the GI50 (NCI-H23 lung)?
A: 0.375 µM

Q: And the TGI (NCI-H23 lung)?
A: > 100 µM

Q: And the GI50 (NCI-H460 lung)?
A: 0.081 µM

Q: And the TGI (NCI-H460 lung)?
A: > 62.6 µM

Q: What about the GI50 (NCI-H522 lung) of the same compound?
A: 0.0302 µM

Q: What about the TGI (NCI-H522 lung) of the same compound?
A: 0.145 µM

Q: What about the GI50 (NCI/ADR-RES ovarian) of the same compound?
A: 0.0534 µM

Q: And the TGI (NCI/ADR-RES ovarian)?
A: > 100 µM

Q: What about the GI50 (OVCAR-4 ovarian) of the same compound?
A: 29.7 µM

Q: What about the TGI (OVCAR-4 ovarian) of the same compound?
A: > 100 µM

Q: And the GI50 (OVCAR-5 ovarian)?
A: 0.41 µM

Q: What about the TGI (OVCAR-5 ovarian) of the same compound?
A: > 100 µM

Q: And the GI50 (OVCAR-8 ovarian)?
A: 0.3 µM

Q: And the TGI (OVCAR-8 ovarian)?
A: > 100 µM

Q: And the GI50 (PC-3 prostate)?
A: 0.139 µM

Q: And the TGI (PC-3 prostate)?
A: > 100 µM

Q: What about the GI50 (RPMI-8226 leukemia) of the same compound?
A: 0.289 µM

Q: And the TGI (RPMI-8226 leukemia)?
A: > 71.2 µM

Q: And the GI50 (RXF 393 renal)?
A: 0.13 µM

Q: And the TGI (RXF 393 renal)?
A: > 100 µM

Q: What about the GI50 (SF-268 CNS) of the same compound?
A: 0.843 µM

Q: And the TGI (SF-268 CNS)?
A: > 100 µM

Q: And the GI50 (SF-295 CNS)?
A: 0.0459 µM

Q: What about the TGI (SF-295 CNS) of the same compound?
A: > 100 µM

Q: What about the GI50 (SF-539 CNS) of the same compound?
A: 0.123 µM

Q: And the TGI (SF-539 CNS)?
A: 0.754 µM

Q: What about the GI50 (SK-MEL-2 melanoma) of the same compound?
A: 0.104 µM

Q: And the TGI (SK-MEL-2 melanoma)?
A: > 31.2 µM

Q: What about the GI50 (SK-MEL-28 melanoma) of the same compound?
A: > 64.4 µM

Q: What about the TGI (SK-MEL-28 melanoma) of the same compound?
A: > 100 µM

Q: And the GI50 (SK-MEL-5 melanoma)?
A: 0.435 µM

Q: What about the TGI (SK-MEL-5 melanoma) of the same compound?
A: 4.02 µM

Q: What about the GI50 (SK-OV-3 ovarian) of the same compound?
A: 0.383 µM

Q: What about the TGI (SK-OV-3 ovarian) of the same compound?
A: > 100 µM

Q: What about the GI50 (SN12C renal) of the same compound?
A: 0.8 µM

Q: What about the TGI (SN12C renal) of the same compound?
A: > 100 µM

Q: And the GI50 (SNB-19 CNS)?
A: 0.285 µM

Q: And the TGI (SNB-19 CNS)?
A: > 100 µM

Q: And the GI50 (SNB-75 CNS)?
A: 0.0266 µM

Q: And the TGI (SNB-75 CNS)?
A: 0.262 µM

Q: What about the GI50 (SR leukemia) of the same compound?
A: 0.0375 µM

Q: What about the TGI (SR leukemia) of the same compound?
A: > 100 µM

Q: And the GI50 (SW-620 colon)?
A: 0.0732 µM

Q: What about the TGI (SW-620 colon) of the same compound?
A: > 100 µM

Q: What about the TGI (T-47D breast) of the same compound?
A: > 100 µM

Q: What about the GI50 (TK-10 renal) of the same compound?
A: > 73.8 µM

Q: What about the TGI (TK-10 renal) of the same compound?
A: > 100 µM

Q: What about the GI50 (U251 CNS) of the same compound?
A: 0.116 µM

Q: What about the TGI (U251 CNS) of the same compound?
A: > 100 µM

Q: And the GI50 (UACC-257 melanoma)?
A: 22.2 µM

Q: What about the TGI (UACC-257 melanoma) of the same compound?
A: > 100 µM

Q: What about the GI50 (UACC-62 melanoma) of the same compound?
A: 0.0618 µM

Q: What about the TGI (UACC-62 melanoma) of the same compound?
A: > 100 µM

Q: And the GI50 (UO-31 renal)?
A: 0.649 µM

Q: What about the TGI (UO-31 renal) of the same compound?
A: > 100 µM
